Measured values: article PMC7125355 (Translational Oncology, 2020)
Where two headings read alike, the source gives them in different places. Values belong to the molecule of their own block, whether it stands above or below them.

Legend:
EOL-1^PDGFRα = assay: cells; design: species or system human leukemia lines named per line
HL60^Flt3-WT = assay: cells; design: species or system human leukemia lines named per line
KG1^FGFR1OP2-FGFR1 = assay: cells; design: species or system human leukemia lines named per line
MOLT4^Flt3-WT = assay: cells; design: species or system human leukemia lines named per line
U937^Flt3-WT = assay: cells; design: species or system human leukemia lines named per line
BaF3-FLT3-D835H = assay: cells; design: species or system Ba/F3 stable lines
BaF3-FLT3-D835V = assay: cells; design: species or system Ba/F3 stable lines
BaF3-FLT3-ITD-D835Y = assay: cells; design: species or system Ba/F3 stable lines
BaF3-FLT3-ITD-N676D = assay: cells; design: species or system Ba/F3 stable lines
BaF3-FLT3-ITD-Y842H = assay: cells; design: species or system Ba/F3 stable lines
BaF3-FLT3-MOLM-ITD = assay: cells; design: species or system Ba/F3 stable lines
BaF3-tel-FLT3-D835Y = assay: cells; design: species or system Ba/F3 stable lines
BaF3-tel-FLT3-K663Q = assay: cells; design: species or system Ba/F3 stable lines
BaF3-tel-FLT3-R834Q = assay: cells; design: species or system Ba/F3 stable lines
PDGFRα = PDGFRα (Homo sapiens, UniProt P16234); assay: FRET-based Z'-Lyte kinase assay, parallel comparison; format: biochemical
MOLM-13^Flt3-ITD = assay: cells; design: species or system human leukemia lines named per line
MV411^Flt3-ITD = assay: cells; design: species or system human leukemia lines named per line
THP1^Flt3-WT = assay: cells; design: species or system human leukemia lines named per line
MEG01^Flt-WT = assay: cells; design: species or system human leukemia lines named per line; details: read-out: Quizaritinib (AC220); 72 h proliferation, mean ± SD; inhibitor
NB4^Flt3-WT = assay: cells; design: species or system human leukemia lines named per line; details: read-out: Quizaritinib (AC220); 72 h proliferation, mean ± SD; inhibitor
BaF3-FLT3-ITD-D835G = assay: cells; design: species or system Ba/F3 stable lines; details: read-out: Quizartinib / (AC220); 72 h proliferation; inhibitor
BaF3-FLT3-ITD-D835I = assay: cells; design: species or system Ba/F3 stable lines; details: read-out: Quizartinib / (AC220); 72 h proliferation; inhibitor
BaF3-FLT3-ITD-D835N = assay: cells; design: species or system Ba/F3 stable lines; details: read-out: Quizartinib / (AC220); 72 h proliferation; inhibitor
BaF3-FLT3-ITD-D835V = assay: cells; design: species or system Ba/F3 stable lines; details: read-out: Quizartinib / (AC220); 72 h proliferation; inhibitor
BaF3-FLT3-ITD-F691I = assay: cells; design: species or system Ba/F3 stable lines; details: read-out: Quizartinib / (AC220); 72 h proliferation; inhibitor
BaF3-FLT3-ITD-G697R = assay: cells; design: species or system Ba/F3 stable lines; details: read-out: Quizartinib / (AC220); 72 h proliferation; inhibitor
BaF3-FLT3-ITD-Y842R = assay: cells; design: species or system Ba/F3 stable lines; details: read-out: Quizartinib / (AC220); 72 h proliferation; inhibitor
BaF3-Tel-FLT3-ITD = assay: cells; design: species or system Ba/F3 stable lines; details: read-out: Quizartinib / (AC220); 72 h proliferation; inhibitor
BaF3-tel-FLT3 = assay: cells; design: species or system Ba/F3 stable lines; details: read-out: Quizartinib / (AC220); 72 h proliferation; inhibitor
[1] = 72 h, read-out: GZD824 (HQP1351)
[2] = Mus musculus, BaF3, 72 h, read-out: GZD824
[3] = Mus musculus, BaF3, 72 h, read-out: Midostaurin / (PKC412)
[4] = 72 h, read-out: Gilteritinib (ASP2215)
[5] = read-out: Quizaritinib (AC220), 72 h proliferation, mean ± SD, inhibitor
[6] = read-out: Quizartinib / (AC220), 72 h proliferation, inhibitor

PDGFRα, sequence (P16234 24-1089): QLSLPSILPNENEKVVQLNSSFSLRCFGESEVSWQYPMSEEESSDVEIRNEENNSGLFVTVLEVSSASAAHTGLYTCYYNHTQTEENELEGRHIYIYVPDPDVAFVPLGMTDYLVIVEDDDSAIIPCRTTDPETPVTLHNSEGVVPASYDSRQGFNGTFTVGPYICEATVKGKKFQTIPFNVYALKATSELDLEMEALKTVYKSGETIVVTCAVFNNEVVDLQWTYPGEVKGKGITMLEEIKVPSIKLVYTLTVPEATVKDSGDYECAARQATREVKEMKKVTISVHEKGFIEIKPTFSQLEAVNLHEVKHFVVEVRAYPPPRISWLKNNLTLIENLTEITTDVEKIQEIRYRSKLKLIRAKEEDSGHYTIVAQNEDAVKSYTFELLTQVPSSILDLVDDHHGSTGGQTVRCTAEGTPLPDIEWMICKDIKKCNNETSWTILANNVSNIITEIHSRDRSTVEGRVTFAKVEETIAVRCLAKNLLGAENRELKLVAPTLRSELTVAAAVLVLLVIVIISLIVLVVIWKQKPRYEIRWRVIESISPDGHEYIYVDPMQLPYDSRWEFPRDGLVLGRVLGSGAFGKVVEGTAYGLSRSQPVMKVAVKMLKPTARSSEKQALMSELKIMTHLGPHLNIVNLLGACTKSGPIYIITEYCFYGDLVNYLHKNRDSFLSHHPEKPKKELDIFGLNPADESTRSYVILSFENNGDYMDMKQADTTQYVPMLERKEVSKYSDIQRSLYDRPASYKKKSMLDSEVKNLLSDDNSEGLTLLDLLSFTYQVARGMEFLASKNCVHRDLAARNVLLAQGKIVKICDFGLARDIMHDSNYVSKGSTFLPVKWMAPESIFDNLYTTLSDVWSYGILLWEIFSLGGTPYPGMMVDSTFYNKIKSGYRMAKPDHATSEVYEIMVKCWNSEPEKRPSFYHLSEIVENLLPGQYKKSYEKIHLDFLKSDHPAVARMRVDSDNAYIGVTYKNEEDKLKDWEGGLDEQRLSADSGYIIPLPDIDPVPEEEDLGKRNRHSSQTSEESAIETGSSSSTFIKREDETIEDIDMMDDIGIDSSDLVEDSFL

Compound: Cc1ccc(C(=O)Nc2ccc(CN3CCN(C)CC3)c(C(F)(F)F)c2)cc1C#Cc1cnc2[nH]ncc2c1 [GZD824]
IC50 (EOL-1^PDGFRα; [1]): 7.56 ± 2.73 nM
IC50 (HL60^Flt3-WT; [1]): 922 ± 210 nM
IC50 (KG1^FGFR1OP2-FGFR1; [1]): 3.66 ± 1.93 nM
IC50 (MOLT4^Flt3-WT; [1]): 246 ± 139 nM
IC50 (U937^Flt3-WT; [1]): 1170 ± 105 nM
IC50 (BaF3-FLT3-D835H; [2]): 17.6 nM
IC50 (BaF3-FLT3-D835V; [2]): 34.7 nM
IC50 (BaF3-FLT3-ITD-D835Y; [2]): 35.7 nM
IC50 (BaF3-FLT3-ITD-N676D; [2]): 7.2 nM
IC50 (BaF3-FLT3-ITD-Y842H; [2]): 3.2 nM
IC50 (BaF3-FLT3-MOLM-ITD; [2]): 0.8 nM
IC50 (BaF3-tel-FLT3-D835Y; [2]): 5.7 nM
IC50 (BaF3-tel-FLT3-K663Q; [2]): 853 nM
IC50 (BaF3-tel-FLT3-R834Q; [2]): 76.2 nM

Compound: CO[C@@H]1[C@H](N(C)C(=O)c2ccccc2)C[C@H]2O[C@]1(C)n1c3ccccc3c3c4c(c5c6ccccc6n2c5c31)C(=O)NC4 [Midostaurin]
IC50 (BaF3-FLT3-ITD-N676D; [3]): 62.4 nM
IC50 (BaF3-tel-FLT3-R834Q; [3]): 63.1 nM

IC50 (PDGFRα): 148 ± 7.78 nM
IC50 (HL60^Flt3-WT; [4]): 689 ± 398 nM
IC50 (MOLM-13^Flt3-ITD; [4]): 9.35 ± 2.23 nM
IC50 (MV411^Flt3-ITD; [4]): 3.34 ± 0.91 nM
IC50 (THP1^Flt3-WT; [4]): > 1000 nM
Compound: CCc1nc(C(N)=O)c(Nc2ccc(N3CCC(N4CCN(C)CC4)CC3)c(OC)c2)nc1NC1CCOCC1 [gilteritinib]

Compound: CC(C)(C)c1cc(NC(=O)Nc2ccc(-c3cn4c(n3)sc3cc(OCCN5CCOCC5)ccc34)cc2)no1 [quizartinib]
IC50 (EOL-1^PDGFRα; [5]): 1510 ± 451 nM
IC50 (HL60^Flt3-WT; [5]): 1170 ± 72.1 nM
IC50 (KG1^FGFR1OP2-FGFR1; [5]): 1020 ± 572 nM
IC50 (MEG01^Flt-WT): 3310 ± 1560 nM
IC50 (MOLM-13^Flt3-ITD; [5]): 5.67 ± 9.29 nM
IC50 (MOLT4^Flt3-WT; [5]): 1950 ± 1750 nM
IC50 (MV411^Flt3-ITD; [5]): 1.07 ± 0.32 nM
IC50 (NB4^Flt3-WT): 1990 ± 890 nM
IC50 (THP1^Flt3-WT; [5]): > 1000 nM
IC50 (U937^Flt3-WT; [5]): 1430 ± 246 nM
IC50 (BaF3-FLT3-D835H; [6]): 4 nM
IC50 (BaF3-FLT3-D835V; [6]): 40.2 nM
IC50 (BaF3-FLT3-ITD-D835G): 4.3 nM
IC50 (BaF3-FLT3-ITD-D835I): 183 nM
IC50 (BaF3-FLT3-ITD-D835N): 1.6 nM
IC50 (BaF3-FLT3-ITD-D835V): 126 nM
IC50 (BaF3-FLT3-ITD-D835Y; [6]): 35.5 nM
IC50 (BaF3-FLT3-ITD-F691I): 95 nM
IC50 (BaF3-FLT3-ITD-G697R): 22.8 nM
IC50 (BaF3-FLT3-ITD-N676D; [6]): 8.3 nM
IC50 (BaF3-FLT3-ITD-Y842H; [6]): 5.3 nM
IC50 (BaF3-FLT3-ITD-Y842R): 7.2 nM
IC50 (BaF3-FLT3-MOLM-ITD; [6]): 0.8 nM
IC50 (BaF3-Tel-FLT3-ITD): 2 nM
IC50 (BaF3-tel-FLT3-D835Y; [6]): 2.4 nM
IC50 (BaF3-tel-FLT3-K663Q; [6]): > 1000 nM
IC50 (BaF3-tel-FLT3-R834Q; [6]): > 1000 nM
IC50 (BaF3-tel-FLT3): 3.1 nM
